Reference: patent US20110150974A1, “Agent For Oral Mucosal Administration” (DAIICHI PHARMACEUTICAL CO., LTD., priority 2004, published 2011)
Structures can show the parent of a compound that is named as a salt.

How the values were obtained:
[1] = tested on: Human Oral Mucosa; experiment: Influences of pH and additives on drug absorption from human oral mucosa (gargle test); format: in vivo; settings: healthy volunteers, FIG. 2
Description: Healthy volunteers were made to clean their teeth and then gargle with 10 mL of each test solution (Examples 1 to 4) for 2 minutes, the gargles were collected, and then the oral cavity was washed twice with 10 mL of distilled water for 10 seconds. All the mouth wash was added to the test solution after gargling. The amounts of cevimeline hydrochloride in the test solutions before and after the gargling were measured by HPLC, and the difference between the samples was calculated as the amount of absorption to the oral mucosa.

[2] = Drug distribution to each tissue in rats (oral mucosal vs oral administration); format: in vivo, Rats (male Wistar)
Description: Rats (9-week old male Wistar rats, body weight: 172 to 205 g) were fixed at the dorsal position under urethane (1.25 g/kg i.p.) anesthesia. The test preparation was administered, and plasma and tissues (minor salivary glands, stomach, small intestine, liver, kidney) were collected 0.5, 1, 2, 4 and 8 hours later for observation of the condition of the application site of the preparation and measurement of the concentration in each tissue. The surface of the minor salivary glands was rinsed with physiological saline, and contents were removed from the stomach and the small intestine, which were rinsed in physiological saline. Each collected tissue was stored at −40° C. before the measurement. The medicament concentration in each tissue was measured by LC/MS/MS.

[3] = tested on: xerostomia caused by Sjogren's syndrome; settings: oral preparations, cited from earlier work

CC1OC2(CS1)CN1CCC2CC1 (racemic) [cevimeline hydrochloride hydrate, (±)-cis-2-methylspiro(1,3-oxathiolane-5,3′-quinuclidine) monohydrochloride monohydrate]
amount of absorption to the oral mucosa ([1]; pH 8.0, triethanolamine/hydrochloric acid buffer compared with McIlvaine buffer, gargle 10 mL for 2 minutes): larger
amount absorbed from oral mucosa ([1]; pH 8.0 compared with pH 6.0, gargle): more
oral mucosal absorbability ([1]; triethanolamine concentration of 1.5% compared with 0.3%, pH 8.0, gargle): better
mucosal irritancy at the application site ([2]; oral mucosal administration (patch of Example 9)): no mucosal irritancy was observed
drug concentration in the stomach ([2]; oral mucosal administration (patch of Example 9) compared with oral administration, 0.5-8 hours, FIG. 5): lower
drug concentration in the small intestine ([2]; oral mucosal administration (patch of Example 9) compared with oral administration, 0.5-8 hours, FIG. 6): lower
drug concentration in the kidney ([2]; oral mucosal administration (patch of Example 9) compared with oral administration, 0.5-8 hours, FIG. 8): lower
drug concentration in the liver ([2]; oral mucosal administration (patch of Example 9) compared with oral administration, 0.5-8 hours, FIG. 9): lower
plasma concentrations ([2]; oral mucosal administration (patch of Example 9) compared with oral administration, changed less in the initial period, FIG. 10): remained constantly low
concentrations in the minor salivary glands ([2]; oral mucosal administration (patch of Example 9), FIG. 11): markedly high
medicament concentrations in the stomach, small intestine, kidney and liver in the initial period after administration ([2]; oral mucosal administration (patch of Example 9), up to 2 hours): apparently low
saliva secretion promoting effect ([3]; JP 61-280497 and 06-024981): confirmed
adverse reactions in the digestive system ([3]; may cause): nausea, abdominal pain, and vomiting
